From US20220175768A1, “FGFR TYROSINE KINASE INHIBITORS FOR THE TREATMENT OF UROTHELIAL CARCINOMA” (Janssen Pharmaceutica NV, priority 2019, published 2022)
Where two headings read alike, the source gives them in different places.

[1] = 8 mg continuous, selected regimen 3 (n = 99)
[2] = 8 mg continuous, selected regimen 3 (n = 99), Table 14
[3] = 10 mg intermittent, regimen 1 (n = 33)

Method: Study treatment was administered on 28-day cycles. Prior to interim analysis 1, there were 2 treatment regimens. Patients were randomized 1:1 to 28-day cycles to the following 2 regimens until a regimen was selected for further study: Regimen 1 (10 mg once daily intermittent (7 days on/7 days); Regimen 2 (6 mg once daily continuous). Randomization was stratified according to performance status (0 to 1 vs. 2), hemoglobin value (<10 vs. ≥10 g per dl), FGFR alteration type (mutation vs. fusion), prior treatment status (chemotherapy-resistant vs. chemotherapy naïve), and disease distribution (presence or absence of visceral [liver, lung, bone] metastases). Starting dose selection was based on phase 1 efficacy and tolerability.
Thus, after interim analysis, this became a single-arm study. […] Treatment continued until disease progression or unacceptable adverse event(s) per investigator.
All objective responses required confirmation by an additional investigator assessment within 4 to 6 weeks of first assessment. Disease evaluations for regimen 3 were also performed by an independent radiographic review committee. […] Safety was evaluated based on clinical laboratory tests, physical exams, electrocardiograms, and ophthalmology examinations. Adverse events and abnormalities were assessed by investigator and graded per NCI CTCAE v.4.0
Prophylactic measures were taken to minimize risk of common adverse events related to FGFR inhibition. To reduce risk of hyperphosphatemia, a low-phosphate diet was recommended for all patients (600 to 800 mg of dietary phosphate intake per day). To reduce the risk of skin effects, the application of alcohol-free emollient moisturizing cream and avoidance of unnecessary exposure to sunlight, soap, perfumed products, and hot baths was recommended. Patients were asked to keep their fingers and toes clean and nails trimmed to reduce risk of nail effects.
Additional ophthalmology examinations were performed if clinically indicated.

COc1cc(OC)cc(N(CCNC(C)C)c2ccc3ncc(-c4cnn(C)c4)nc3c2)c1 [erdafitinib, N-(3,5-dimethoxy-phenyl)-N′-(1-methylethyl)-N-[3-(1-methyl-1H-pyrazol-4-yl)quinoxalin-6-yl]ethane-1,2-diamine]
5 (5) no. (%): Patients with Nail dystrophy, Grade 1 [1] | Patients with Nail dystrophy, Grade 2 [1] | Patients with Onychomadesis, Grade 2 [1] | Patients with Peripheral edema, Grade 1 [1] | Patients with Pyrexia, Grade 2 [1] | Patients with Retinal detachment, Any grade [1] | Patients with Urinary tract infection, Grade ≥3 [1]
6 (18) no. (%): Patients with Anemia, Grade ≥3 [3] | Patients with Constipation, Grade 2 [3] | Patients with Decreased appetite, Grade 2 [3] | Patients with Diarrhea, Grade 2 [3] | Patients with Fatigue, Any grade [3]
8 (24) no. (%): Patients with Anemia, Any grade [3] | Patients with Constipation, Grade 1 [3] | Patients with Dry skin, Grade 1 [3] | Patients with Dyspnea, Any grade [3]
12 (12) no. (%): Patients with Hyponatremia, Any grade [1] | Patients with Pain in extremity, Any grade [1]
9 (9) no. (%): Patients with Hypomagnesemia, Grade 1 [1] | Patients with Peripheral edema, Any grade [1]
11 (33) no. (%): Patients with Decreased appetite, Any grade [3]
14 (42) no. (%): Patients with Constipation, Any grade [3] | Patients with Diarrhea, Any grade [3]
6 (6) no. (%): Patients with Nail dystrophy, Grade ≥3 [1] | Patients with Nausea, Grade 2 [1] | Patients with Onycholysis, Grade 1 [1]
0 no. (%): Patients with Hypomagnesemia, Grade ≥3 [1] | Patients with Hyponatremia, Grade 2 [1] | Patients with Insomnia, Grade ≥3 [1] | Patients with Lacrimation increased, Grade ≥3 [1] | Patients with Onychomadesis, Grade ≥3 [1] | Patients with Pain in extremity, Grade ≥3 [1] | Patients with Pyrexia, Grade ≥3 [1] | Patients with Retinal detachment, Grade ≥3 [1] | Patients with Urinary tract infection, Grade 1 [1] | Patients with Vision blurred, Grade ≥3 [1] | Patients with Weight decreased, Grade ≥3 [1] | Patients with Alanine aminotransferase increased, Grade 1 [3] | Patients with Alanine aminotransferase increased, Grade ≥3 [3] | Patients with Alopecia, Grade ≥3 [3] | Patients with Aspartate aminotransferase increased, Grade 2 [3] | Patients with Aspartate aminotransferase increased, Grade ≥3 [3] | Patients with Blood creatinine increased, Grade ≥3 [3] | Patients with Conjunctivitis, Grade ≥3 [3] | Patients with Constipation, Grade ≥3 [3] | Patients with Dry eye, Grade ≥3 [3] | Patients with Dry mouth, Grade ≥3 [3] | Patients with Dry skin, Grade ≥3 [3] | Patients with Dysgeusia, Grade ≥3 [3] | Patients with Dyspepsia, Grade ≥3 [3] | Patients with Fatigue, Grade ≥3 [3] | Patients with Hand-foot syndrome, Grade 1 [3] | Patients with Hand-foot syndrome, Grade ≥3 [3]
57 (58) no. (%): Patients with Stomatitis, Any grade [1]
17 (17) no. (%): Patients with Paronychia, Any grade [1] | Patients with Vision blurred, Any grade [1]
68%: Patients with grade ≥3 treatment-emergent adverse events (8 mg per day continuous group uptitrated to 9 mg per day)
3 (9) no. (%): Patients with Arthralgia, Grade 1 [3] | Patients with Asthenia, Grade 2 [3] | Patients with Back pain, Grade ≥3 [3] | Patients with Blood creatinine increased, Grade 1 [3] | Patients with Conjunctivitis, Grade 1 [3] | Patients with Dry eye, Any grade [3] | Patients with Dysgeusia, Grade 2 [3] | Patients with Dyspepsia, Any grade [3] | Patients with Dyspnea, Grade 1 [3] | Patients with Dyspnea, Grade ≥3 [3] | Patients with Hematuria, Any grade [3]
1 (1) no. (%): Patients with Hypomagnesemia, Grade 2 [1] | Patients with Hyponatremia, Grade 1 [1] | Patients with Nausea, Grade ≥3 [1] | Patients with Oropharyngeal pain, Grade 2 [1] | Patients with Oropharyngeal pain, Grade ≥3 [1] | Patients with Peripheral edema, Grade ≥3 [1] | Patients with Vomiting, Grade 2 [1]
26 (26) no. (%): Patients with Stomatitis, Grade 2 [1]
7 (7) no. (%): Patients with Insomnia, Any grade [1] | Patients with Onychomadesis, Any grade [1] | Patients with Vision blurred, Grade 2 [1] | Patients with Weight decreased, Grade 1 [1]
4 (4) no. (%): Patients with Insomnia, Grade 1 [1]
15 (15) no. (%): Patients with Weight decreased, Any grade [1]
2 (6) no. (%): Patients with Abdominal pain, Grade 1 [3] | Patients with Abdominal pain, Grade 2 [3] | Patients with Alopecia, Grade 1 [3] | Patients with Alopecia, Grade 2 [3] | Patients with Arthralgia, Grade 2 [3] | Patients with Arthralgia, Grade ≥3 [3] | Patients with Aspartate aminotransferase increased, Any grade [3] | Patients with Aspartate aminotransferase increased, Grade 1 [3] | Patients with Asthenia, Grade ≥3 [3] | Patients with Dry eye, Grade 1 [3] | Patients with Dyspepsia, Grade 1 [3] | Patients with Dyspnea, Grade 2 [3] | Patients with Fatigue, Grade 2 [3] | Patients with Hand-foot syndrome, Any grade [3] | Patients with Hand-foot syndrome, Grade 2 [3] | Patients with Hematuria, Grade 2 [3]
7 (21) no. (%): Patients with Arthralgia, Any grade [3] | Patients with Diarrhea, Grade 1 [3] | Patients with Dysgeusia, Grade 1 [3]
20 (20) no. (%): Patients with Nausea, Any grade [1]
63%: Patients with some type of eye disorder, regardless of relation to treatment (8 mg per day continuous)
16 (48) no. (%): Patients with Dry mouth, Any grade [3]
3 (3) no. (%): Patients with Insomnia, Grade 2 [1] | Patients with Lacrimation increased, Grade 2 [1] | Patients with Paronychia, Grade 1 [1] | Patients with Paronychia, Grade ≥3 [1] | Patients with Peripheral edema, Grade 2 [1] | Patients with Retinal detachment, Grade 1 [1]
5 (15) no. (%): Patients with Abdominal pain, Any grade [3] | Patients with Asthenia, Grade 1 [3] | Patients with Back pain, Any grade [3]
1 (3) no. (%): Patients with Abdominal pain, Grade ≥3 [3] | Patients with Alanine aminotransferase increased, Any grade [3] | Patients with Alanine aminotransferase increased, Grade 2 [3] | Patients with Anemia, Grade 1 [3] | Patients with Anemia, Grade 2 [3] | Patients with Back pain, Grade 1 [3] | Patients with Back pain, Grade 2 [3] | Patients with Blood creatinine increased, Grade 2 [3] | Patients with Conjunctivitis, Grade 2 [3] | Patients with Decreased appetite, Grade ≥3 [3] | Patients with Diarrhea, Grade ≥3 [3] | Patients with Dry eye, Grade 2 [3] | Patients with Dry mouth, Grade 2 [3] | Patients with Dry skin, Grade 2 [3] | Patients with Dyspepsia, Grade 2 [3] | Patients with Hematuria, Grade 1 [3]
8 (8) no. (%): Patients with Lacrimation increased, Grade 1 [1] | Patients with Oropharyngeal pain, Grade 1 [1] | Patients with Pyrexia, Grade 1 [1] | Patients with Weight decreased, Grade 2 [1]
15 (46) no. (%): Patients with Dry mouth, Grade 1 [3]
10 (30) no. (%): Patients with Asthenia, Any grade [3] | Patients with Dysgeusia, Any grade [3]
13 (13) no. (%): Patients with Nausea, Grade 1 [1] | Patients with Pyrexia, Any grade [1] | Patients with Vomiting, Any grade [1]
10 (10) no. (%): Patients with Hypomagnesemia, Any grade [1] | Patients with Onycholysis, Grade 2 [1] | Patients with Oropharyngeal pain, Any grade [1] | Patients with Pain in extremity, Grade 1 [1] | Patients with Stomatitis, Grade ≥3 [1] | Patients with Vision blurred, Grade 1 [1] | Patients with Vomiting, Grade 1 [1]
21 (21) no. (%): Patients with Stomatitis, Grade 1 [1]
18 (18) no. (%): Patients with Onycholysis, Any grade [1]
16 (16) no. (%): Patients with Nail dystrophy, Any grade [1] | Patients with Urinary tract infection, Any grade [1]
9 (27) no. (%): Patients with Dry skin, Any grade [3]
4 (12) no. (%): Patients with Alopecia, Any grade [3] | Patients with Blood creatinine increased, Any grade [3] | Patients with Conjunctivitis, Any grade [3] | Patients with Decreased appetite, Grade 1 [3] | Patients with Fatigue, Grade 1 [3]
2 (2) no. (%): Patients with Hyperphosphatemia, Grade ≥3 [1] | Patients with Onycholysis, Grade ≥3 [1] | Patients with Onychomadesis, Grade 1 [1] | Patients with Pain in extremity, Grade 2 [1] | Patients with Retinal detachment, Grade 2 [1] | Patients with Vomiting, Grade ≥3 [1]
0 no.: Patients with Alopecia, Grade ≥3 [2] | Patients with Decreased appetite, Grade ≥3 [2] | Patients with Dry mouth, Grade ≥3 [2] | Patients with Dry skin, Grade ≥3 [2] | Patients with Urinary tract infection, Grade 1 [2] | Patients with Vision blurred, Grade ≥3 [2]
11 (11) no. (%): Patients with Hyponatremia, Grade ≥3 [1] | Patients with Lacrimation increased, Any grade [1] | Patients with Paronychia, Grade 2 [1] | Patients with Urinary tract infection, Grade 2 [1]
